ChEMBL document CHEMBL1201862, “PubChem BioAssay data set” (2004)
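A five-concentration, 48-hour dose response in 96-well plates underlies each endpoint, interpolated linearly between surrounding concentrations. At the GI50, growth is halved.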 Active and inactive are the calls of the source. Cut-off read from the data, not from the text of the source: active = GI50 up to about 1.1 µM and inactive = higher.

Key:
Assay in all cases: growth of human tumour cells (NCI), 48 h
[1] = system: SR
[2] = system: ACHN
[3] = system: SN12C
[4] = system: KM12
[5] = system: SK-MEL-2
[6] = system: SW-620
[7] = system: U-251
[8] = system: NCI-H226
[9] = system: SNB-75
[10] = system: T47D
[11] = system: MCF7
[12] = system: OVCAR-5
[13] = system: COLO 205
[14] = system: CAKI-1
[15] = system: Hs-578T
[16] = system: M14
[17] = system: HT-29
[18] = system: Malme-3M
[19] = system: NCI-H522

Structure (SMILES)	GI50 [1]	GI50 [2]	GI50 [3]	GI50 [4]	GI50 [5]	GI50 [6]	GI50 [7]	GI50 [8]	GI50 [9]	GI50 [10]	GI50 [11]	GI50 [12]	GI50 [13]	GI50 [14]	GI50 [15]	GI50 [16]	GI50 [17]	GI50 [18]	GI50 [19]
CCOC(=O)/C(C#N)=N\Nc1ccc(-n2c(C)nc3ccccc3c2=O)cc1	39.4 µM (inactive)	> 100 µM (inactive)	> 100 µM (inactive)	30.2 µM (inactive)	> 100 µM (inactive)	75.9 µM (inactive)	> 100 µM (inactive)	24.5 µM (inactive)	63.5 µM (inactive)	34.8 µM (inactive)	84.3 µM (inactive)	> 100 µM (inactive)	78.3 µM (inactive)	> 100 µM (inactive)	59 µM (inactive)	69.8 µM (inactive)	> 100 µM (inactive)	–	–
Cc1[nH]c(-c2ccccc2)c(O)c1C(=O)OC12CC3CC(CC(C3)C1)C2	12.6 µM (inactive)	16.1 µM (inactive)	16.4 µM (inactive)	5.01 µM (inactive)	16.7 µM (inactive)	16.2 µM (inactive)	14.9 µM (inactive)	14.1 µM (inactive)	10.8 µM (inactive)	15.8 µM (inactive)	14.1 µM (inactive)	13.8 µM (inactive)	13.9 µM (inactive)	20.1 µM (inactive)	10.3 µM (inactive)	12.4 µM (inactive)	3.99 µM (inactive)	14.1 µM (inactive)	10.1 µM (inactive)
COc1cc(-c2c3c(cc4c2OCO4)[C@@H](Nc2ccc(-c4ccc(-c5ccc(N[C@@H]6c7cc8c(cc7C(c7cc(OC)c(O)c(OC)c7)[C@H]7C(=O)OC[C@H]67)OCO8)cc5)cc4)cc2)[C@H]2COC(=O)[C@@H]2C3)cc(OC)c1O (stereo not given in full)	2.2 µM (inactive)	2.24 µM (inactive)	5.21 µM (inactive)	1.85 µM (inactive)	–	2.7 µM (inactive)	3.09 µM (inactive)	2.09 µM (inactive)	< 0.01 µM (active)	4.93 µM (inactive)	2.82 µM (inactive)	4.39 µM (inactive)	1.7 µM (inactive)	2.65 µM (inactive)	2.6 µM (inactive)	1.95 µM (inactive)	2.31 µM (inactive)	1.87 µM (inactive)	–
S=C1Cc2c([nH]c3ccccc23)-c2ccccc2N1	42 µM (inactive)	23.6 µM (inactive)	38.6 µM (inactive)	> 100 µM (inactive)	–	> 100 µM (inactive)	–	29.5 µM (inactive)	26.2 µM (inactive)	> 100 µM (inactive)	> 100 µM (inactive)	> 100 µM (inactive)	> 100 µM (inactive)	23.3 µM (inactive)	61 µM (inactive)	> 100 µM (inactive)	> 100 µM (inactive)	69.2 µM (inactive)	–
N/C(=N\c1ccc(Cl)cc1)NS(=O)(=O)c1ccc(-c2ncccc2C(F)(F)F)s1	10.5 µM (inactive)	16 µM (inactive)	17.2 µM (inactive)	23.9 µM (inactive)	15.8 µM (inactive)	15.3 µM (inactive)	13.1 µM (inactive)	17.2 µM (inactive)	18.8 µM (inactive)	12.3 µM (inactive)	14.7 µM (inactive)	24.3 µM (inactive)	42 µM (inactive)	–	17.1 µM (inactive)	14.6 µM (inactive)	19.4 µM (inactive)	15.2 µM (inactive)	10.4 µM (inactive)
C=CCCC1CCCCC/C1=N\N(C)C (stereo not given)	> 100 µM (inactive)	> 100 µM (inactive)	> 100 µM (inactive)	> 100 µM (inactive)	> 100 µM (inactive)	> 100 µM (inactive)	> 100 µM (inactive)	> 100 µM (inactive)	> 100 µM (inactive)	> 100 µM (inactive)	> 100 µM (inactive)	> 100 µM (inactive)	> 100 µM (inactive)	> 100 µM (inactive)	> 100 µM (inactive)	> 100 µM (inactive)	> 100 µM (inactive)	–	> 100 µM (inactive)
